# Several values for one entry are separate records, joined by “and”; a condition that tells them apart may be missing. Equal values may be shown once. Inconclusive results and toxic doses are left out.
# Test system: P1534 leukemia ip, CD2F1 mice, survival T/C
# Assay: NCI In Vivo Anticancer Drug Screen. Data for tumor model P1534 Leukemia (intraperitoneal) in CD2F1 (CDF1) mice
# Settings: higher = longer survival
# Description: The antitumor activity of compounds was measured in mice bearing transplantable tumors. Survival or tumor size were measured and the results are expressed as the measurement made in the treated group (T) divided by the measurement made in the vehicle treated control group (C). The tumor model used in this assay is P1534 Leukemia (intraperitoneal) in CD2F1 (CDF1) mice
# [1] = endpoint: mean survival time, dose: 25.0 mg/kg/injection, schedule: Q01DX010 (ip), vehicle: saline
# [2] = endpoint: mean survival time, dose: 50.0 mg/kg/injection, schedule: Q01DX010 (ip), vehicle: saline
# [3] = endpoint: mean survival time, dose: 100.0 mg/kg/injection, schedule: Q01DX010 (ip), vehicle: saline
# [4] = endpoint: mean survival time, dose: 200.0 mg/kg/injection, schedule: Q01DX010 (ip), vehicle: saline
# [5] = endpoint: mean survival time, dose: 6.25 mg/kg/injection, schedule: Q01DX010 (ip), vehicle: saline
# [6] = endpoint: mean survival time, dose: 12.5 mg/kg/injection, schedule: Q01DX010 (ip), vehicle: saline
# [7] = endpoint: mean survival time, dose: 15.0 mg/kg/injection, schedule: Q01DX010 (ip), vehicle: saline
# [8] = endpoint: mean survival time, dose: 30.0 mg/kg/injection, schedule: Q01DX010 (ip), vehicle: saline
# [9] = endpoint: mean survival time, dose: 300.0 mg/kg/injection, schedule: Q01DX010 (ip), vehicle: saline
# [10] = endpoint: mean survival time, dose: 400.0 mg/kg/injection, schedule: Q01DX010 (ip), vehicle: saline
# [11] = endpoint: mean survival time, dose: 150.0 mg/kg/injection, schedule: Q01DX010 (ip), vehicle: water
# [12] = endpoint: mean survival time, dose: 100.0 mg/kg/injection, schedule: Q01DX010 (ip), vehicle: water
# [13] = endpoint: mean survival time, dose: 10.0 mg/kg/injection, schedule: Q01DX010 (ip), vehicle: saline
structure (smiles),measurement,setting,value
O=[n+]1c2c(n([O-])c3ccccc31)-c1cccc3cccc-2c13,T/C,[1],92 % of control and 96 % of control
same,T/C,[2],103 % of control and 92 % of control
same,T/C,[3],92 % of control and 96 % of control
same,T/C,[4],92 % of control
C1CCNC1,T/C,"endpoint: mean survival time, dose: 1.56 mg/kg/injection, schedule: Q01DX010 (ip), vehicle: saline",113 % of control
same,T/C,"endpoint: mean survival time, dose: 3.13 mg/kg/injection, schedule: Q01DX010 (ip), vehicle: saline",103 % of control
same,T/C,[5],100 % of control
same,T/C,[6],103 % of control and 96 % of control
same,T/C,[1],86 % of control
CC[C@]12CN3CCc4c([nH]c5ccccc45)[C@@](C(=O)OC)(c4cc5c(cc4OC)N(C)[C@H]4[C@@](O)(C(=O)OC)[C@H](OC(C)=O)[C@]6(CC)C=CCN7CC[C@]54[C@@H]76)CC(C3)[C@H]1O2 (stereo partly specified),T/C,"endpoint: mean survival time, dose: 1.5 mg/kg/injection, schedule: Q01DX010 (ip), vehicle: saline",182 % of control
same,T/C,"endpoint: mean survival time, dose: 3.0 mg/kg/injection, schedule: Q01DX010 (ip), vehicle: saline",260 % of control
same,T/C,"endpoint: mean survival time, dose: 94.0 micrograms/kg/injection, schedule: Q01DX010 (ip), vehicle: saline",96 % of control
same,T/C,"endpoint: mean survival time, dose: 188.0 micrograms/kg/injection, schedule: Q01DX010 (ip), vehicle: saline",103 % of control
same,T/C,"endpoint: mean survival time, dose: 375.0 micrograms/kg/injection, schedule: Q01DX010 (ip), vehicle: saline",123 % of control
C/C=C1\CN2C3C[C@H]1C(C(=O)OC)[C@H]2Cc1c3[nH]c2ccccc12 (stereo partly specified),T/C,"endpoint: mean survival time, dose: 7.5 mg/kg/injection, schedule: Q01DX010 (ip), vehicle: saline",100 % of control
same,T/C,[7],93 % of control
same,T/C,[8],93 % of control
O=c1cnn(C2OC(CO)C(O)C2O)c(=O)[nH]1 (stereo unspecified),T/C,[3],105 % of control and 107 % of control
same,T/C,[4],105 % of control and 120 % of control
same,T/C,[9],90 % of control and 94 % of control
same,T/C,[10],103 % of control and 110 % of control
same,T/C,"endpoint: mean survival time, dose: 700.0 mg/kg/injection, schedule: Q01DX010 (ip), vehicle: saline",86 % of control and 89 % of control
same,T/C,"endpoint: mean survival time, dose: 800.0 mg/kg/injection, schedule: Q01DX010 (ip), vehicle: saline",93 % of control and 101 % of control
same,T/C,"endpoint: mean survival time, dose: 1600.0 mg/kg/injection, schedule: Q01DX010 (ip), vehicle: saline",88 % of control
Cc1n[nH]c(C)c1Br,T/C,[11],101 % of control
same,T/C,"endpoint: mean survival time, dose: 200.0 mg/kg/injection, schedule: Q01DX010 (ip), vehicle: water",104 % of control
NC1=NNC(=O)C1,T/C,[12],95 % of control
same,T/C,[11],95 % of control
O=C(NCCCC(NC(=O)OCc1ccccc1)C(=O)NCCCNCCCCNCCCNC(=O)C(CCCNC(=O)OCc1ccccc1)NC(=O)OCc1ccccc1)OCc1ccccc1 (stereo unspecified),T/C,"endpoint: mean survival time, dose: 2.5 mg/kg/injection, schedule: Q01DX010 (ip), vehicle: saline",100 % of control
same,T/C,[13],100 % of control
CN1CC[C@]23c4c5ccc(O)c4O[C@H]2C(=O)CC[C@H]3[C@H]1C5,T/C,"endpoint: mean survival time, dose: 4.0 mg/kg/injection, schedule: Q01DX010 (ip), vehicle: saline",100 % of control
same,T/C,"endpoint: mean survival time, dose: 8.0 mg/kg/injection, schedule: Q01DX010 (ip), vehicle: saline",100 % of control
same,T/C,"endpoint: mean survival time, dose: 16.0 mg/kg/injection, schedule: Q01DX010 (ip), vehicle: saline",107 % of control and 100 % of control
same,T/C,"endpoint: mean survival time, dose: 32.0 mg/kg/injection, schedule: Q01DX010 (ip), vehicle: saline",103 % of control
C/C=C1\CNC2Cc3c([nH]c4ccccc34)C(=O)CC1C2C(=O)OC (stereo unspecified),T/C,[6],93 % of control
same,T/C,[1],103 % of control
same,T/C,[2],96 % of control
same,T/C,[3],93 % of control
Cc1[nH]ncc1Br,T/C,[12],95 % of control
same,T/C,[11],98 % of control
CCOC(N)=O,T/C,"endpoint: mean survival time, dose: 125.0 mg/kg/injection, schedule: Q01DX010 (ip), vehicle: saline",100 % of control
same,T/C,"endpoint: mean survival time, dose: 250.0 mg/kg/injection, schedule: Q01DX010 (ip), vehicle: saline",112 % of control and 100 % of control
same,T/C,"endpoint: mean survival time, dose: 500.0 mg/kg/injection, schedule: Q01DX010 (ip), vehicle: saline",112 % of control and 100 % of control
same,T/C,"endpoint: mean survival time, dose: 1000.0 mg/kg/injection, schedule: Q01DX010 (ip), vehicle: saline",88 % of control and 93 % of control
OCCOCCN1CCN(CCCN2c3ccccc3Sc3ccc(C(F)(F)F)cc32)CC1,T/C,"endpoint: mean survival time, dose: 5.0 mg/kg/injection, schedule: Q01DX010 (ip), vehicle: saline",100 % of control
same,T/C,[13],111 % of control
same,T/C,"endpoint: mean survival time, dose: 20.0 mg/kg/injection, schedule: Q01DX010 (ip), vehicle: saline",123 % of control
same,T/C,"endpoint: mean survival time, dose: 40.0 mg/kg/injection, schedule: Q01DX010 (ip), vehicle: saline",119 % of control
Cn1c(=O)c2c(ncn2C)n(C)c1=O,T/C,[1],100 % of control
same,T/C,[2],100 % of control
same,T/C,[3],100 % of control
COc1ccc2c(=O)cc(-c3ccccc3)n(C)c2c1,T/C,[2],103 % of control
same,T/C,[3],103 % of control
same,T/C,[4],103 % of control
same,T/C,[10],96 % of control
O=C(O)c1cc(C(=O)O)[nH]n1,T/C,[12],103 % of control
same,T/C,[11],103 % of control
C[N+](C)(C)c1ncnc2nc[nH]c12,T/C,[7],107 % of control
same,T/C,[8],110 % of control
same,T/C,"endpoint: mean survival time, dose: 60.0 mg/kg/injection, schedule: Q01DX010 (ip), vehicle: saline",114 % of control
CC(=O)OCC1OC(n2ncc(=O)[nH]c2=O)C(OC(C)=O)C1OC(C)=O (stereo unspecified),T/C,[9],89 % of control
same,T/C,"endpoint: mean survival time, dose: 450.0 mg/kg/injection, schedule: Q01DX010 (ip), vehicle: saline",96 % of control
same,T/C,"endpoint: mean survival time, dose: 675.0 mg/kg/injection, schedule: Q01DX010 (ip), vehicle: saline",100 % of control
CC1CCCCN1 (stereo unspecified),T/C,[5],103 % of control
same,T/C,[6],103 % of control
same,T/C,[1],103 % of control
same,T/C,[2],96 % of control
COc1cc(C[C@H]2c3cc(OC)c(OC)cc3CCN2C)c(Oc2cc3c(cc2OC)-c2c(OC)c(OC)cc4c2[C@H](C3)N(C)CC4)cc1OC,T/C,[1],92 % of control
same,T/C,[2],92 % of control
CS(=O)(=O)OCCC(=O)N1CCN(C(=O)CCOS(C)(=O)=O)CC1,T/C,[1],160 % of control
same,T/C,[2],150 % of control
same,T/C,[3],270 % of control
O=CC(NC(=O)N(CCCl)N=O)C(O)C(O)C(O)CO (stereo unspecified),T/C,"endpoint: median survival time, dose: 0.62 mg/kg/injection, schedule: Q01DX005 (ip), vehicle: other",110 % of control
same,T/C,"endpoint: median survival time, dose: 2.5 mg/kg/injection, schedule: Q01DX005 (ip), vehicle: other",156 % of control
same,T/C,"endpoint: median survival time, dose: 5.0 mg/kg/injection, schedule: Q01DX005 (ip), vehicle: other",224 % of control
same,T/C,"endpoint: median survival time, dose: 10.0 mg/kg/injection, schedule: Q01DX005 (ip), vehicle: other",89 % of control

# — PubChem BioAssay AID316 (DTP/NCI, 2004)
